Results as given in ChEMBL document CHEMBL1201862, “PubChem BioAssay data set” (2004).
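The compound was tested at five concentrations on cells cultured in 96-well plates, with a 48-hour exposure period. At the GI50, growth is halved.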 Calls of active or inactive are those of the source. No stated cut-off is given here; in the data, active = GI50 up to about 1.1 µM and inactive = higher.

Tests used:
Assay in all cases: NCI-60 cell line screen, 48 h
[1] = system: NCI/ADR-RES
[2] = system: OVCAR-5
[3] = system: SF-295
[4] = system: HCC 2998
[5] = system: SN12C
[6] = system: K562
[7] = system: CAKI-1
[8] = system: MDA-MB-231
[9] = system: SNB-75
[10] = system: OVCAR-4
[11] = system: NCI-H522
[12] = system: DU-145
[13] = system: RPMI-8226
[14] = system: A498
[15] = system: HCT-116
[16] = system: Hs-578T
[17] = system: OVCAR-8
[18] = system: MDA-MB-435
[19] = system: UACC-62
[20] = system: HL-60
[21] = system: RXF 393
[22] = system: SNB-19
[23] = system: EKVX
[24] = system: SK-MEL-5
[25] = system: UACC-257
[26] = system: IGROV-1
[27] = system: T47D
[28] = system: PC-3
[29] = system: BT-549
[30] = system: UO-31
[31] = system: OVCAR-3
[32] = system: MOLT-4
[33] = system: NCI-H460
[34] = system: SK-MEL-28
[35] = system: KM12
[36] = system: SW-620
[37] = system: HOP-62
[38] = system: SF-539
[39] = system: SF-268
[40] = system: COLO 205
[41] = system: M14
[42] = system: NCI-H23
[43] = system: 786-0
[44] = system: SK-MEL-2
[45] = system: HT-29
[46] = system: TK-10
[47] = system: NCI-H226
[48] = system: CCRF-CEM
[49] = system: ACHN
[50] = system: HCT-15
[51] = system: A549
[52] = system: U-251
[53] = system: HOP-92
[54] = system: Malme-3M
[55] = system: SK-OV-3
[56] = system: LOX IMVI
[57] = system: MDA-N
[58] = system: SR
[59] = system: MCF7

Cc1oc2nc(N(C)C)nc(Cl)c2c1C
GI50 [1]: > 100 µM (inactive) | GI50 [2]: > 100 µM (inactive) | GI50 [3]: > 100 µM (inactive) | GI50 [4]: > 100 µM (inactive) | GI50 [5]: > 100 µM (inactive) | GI50 [6]: > 100 µM (inactive) | GI50 [7]: 49.4 µM (inactive) | GI50 [8]: > 100 µM (inactive) | GI50 [9]: 3.89 µM (inactive) | GI50 [10]: 32.1 µM (inactive) | GI50 [11]: > 100 µM (inactive) | GI50 [12]: > 100 µM (inactive) | GI50 [13]: > 100 µM (inactive) | GI50 [14]: 29.9 µM (inactive) | GI50 [15]: > 100 µM (inactive) | GI50 [16]: > 100 µM (inactive) | GI50 [17]: > 100 µM (inactive) | GI50 [18]: > 100 µM (inactive) | GI50 [19]: > 100 µM (inactive) | GI50 [20]: > 100 µM (inactive) | GI50 [21]: 40.6 µM (inactive) | GI50 [22]: > 100 µM (inactive) | GI50 [23]: 34.8 µM (inactive) | GI50 [24]: > 100 µM (inactive) | GI50 [25]: > 100 µM (inactive) | GI50 [26]: 49.8 µM (inactive) | GI50 [27]: 46.7 µM (inactive) | GI50 [28]: > 100 µM (inactive) | GI50 [29]: > 100 µM (inactive) | GI50 [30]: 26.8 µM (inactive) | GI50 [31]: > 100 µM (inactive) | GI50 [32]: > 100 µM (inactive) | GI50 [33]: > 100 µM (inactive) | GI50 [34]: > 100 µM (inactive) | GI50 [35]: > 100 µM (inactive) | GI50 [36]: > 100 µM (inactive) | GI50 [37]: > 100 µM (inactive) | GI50 [38]: > 100 µM (inactive) | GI50 [39]: > 100 µM (inactive) | GI50 [40]: > 100 µM (inactive) | GI50 [41]: > 100 µM (inactive) | GI50 [42]: > 100 µM (inactive) | GI50 [43]: > 100 µM (inactive) | GI50 [44]: > 100 µM (inactive) | GI50 [45]: > 100 µM (inactive) | GI50 [46]: > 100 µM (inactive) | GI50 [47]: 84.1 µM (inactive) | GI50 [48]: > 100 µM (inactive) | GI50 [49]: > 100 µM (inactive) | GI50 [50]: > 100 µM | GI50 [51]: > 100 µM (inactive) | GI50 [52]: > 100 µM (inactive) | GI50 [53]: 25.2 µM (inactive)

CCOC(=O)c1c(N2CCCC2)ncn(-c2ccccc2)c1=S
GI50 [1]: > 100 µM (inactive) | GI50 [2]: > 100 µM (inactive) | GI50 [3]: > 100 µM (inactive) | GI50 [4]: > 100 µM (inactive) | GI50 [5]: > 100 µM (inactive) | GI50 [6]: > 100 µM (inactive) | GI50 [54]: 57.5 µM (inactive) | GI50 [9]: > 100 µM (inactive) | GI50 [10]: > 100 µM (inactive) | GI50 [11]: > 100 µM (inactive) | GI50 [12]: > 100 µM (inactive) | GI50 [13]: > 100 µM (inactive) | GI50 [14]: > 100 µM (inactive) | GI50 [55]: > 100 µM (inactive) | GI50 [15]: > 100 µM (inactive) | GI50 [16]: > 100 µM (inactive) | GI50 [17]: > 100 µM (inactive) | GI50 [18]: > 100 µM (inactive) | GI50 [19]: > 100 µM (inactive) | GI50 [20]: > 100 µM (inactive) | GI50 [21]: > 100 µM (inactive) | GI50 [22]: > 100 µM (inactive) | GI50 [23]: > 100 µM (inactive) | GI50 [24]: > 100 µM (inactive) | GI50 [25]: > 100 µM (inactive) | GI50 [26]: > 100 µM (inactive) | GI50 [27]: > 100 µM (inactive) | GI50 [28]: > 100 µM (inactive) | GI50 [29]: > 100 µM (inactive) | GI50 [30]: > 100 µM (inactive) | GI50 [31]: 49.4 µM (inactive) | GI50 [32]: > 100 µM (inactive) | GI50 [33]: > 100 µM (inactive) | GI50 [34]: > 100 µM (inactive) | GI50 [56]: > 100 µM (inactive) | GI50 [35]: > 100 µM (inactive) | GI50 [36]: > 100 µM (inactive) | GI50 [37]: > 100 µM (inactive) | GI50 [38]: > 100 µM (inactive) | GI50 [39]: 28.4 µM (inactive) | GI50 [40]: > 100 µM (inactive) | GI50 [41]: > 100 µM (inactive) | GI50 [43]: > 100 µM (inactive) | GI50 [44]: > 100 µM (inactive) | GI50 [57]: > 100 µM (inactive) | GI50 [45]: > 100 µM (inactive) | GI50 [46]: > 100 µM (inactive) | GI50 [47]: > 100 µM (inactive) | GI50 [48]: > 100 µM (inactive) | GI50 [49]: > 100 µM (inactive) | GI50 [50]: > 100 µM | GI50 [51]: > 100 µM (inactive) | GI50 [58]: > 100 µM (inactive) | GI50 [52]: > 100 µM (inactive) | GI50 [53]: > 100 µM (inactive)

N/C(=N\Nc1cccc(Cl)c1)c1cccnc1
GI50 [1]: 38.7 µM (inactive) | GI50 [2]: 41.3 µM (inactive) | GI50 [3]: 35.7 µM (inactive) | GI50 [4]: 36 µM (inactive) | GI50 [5]: 60 µM (inactive) | GI50 [6]: 4.04 µM (inactive) | GI50 [7]: 3.49 µM (inactive) | GI50 [8]: 81.1 µM (inactive) | GI50 [54]: 97.9 µM (inactive) | GI50 [9]: 29.7 µM (inactive) | GI50 [10]: 13.7 µM (inactive) | GI50 [11]: 29.6 µM (inactive) | GI50 [12]: 82.2 µM (inactive) | GI50 [13]: 14.7 µM (inactive) | GI50 [59]: 38.7 µM (inactive) | GI50 [14]: 22.2 µM (inactive) | GI50 [55]: > 100 µM (inactive) | GI50 [15]: 29.9 µM (inactive) | GI50 [16]: > 100 µM (inactive) | GI50 [17]: > 78.3 µM (inactive) | GI50 [18]: 2.72 µM (inactive) | GI50 [19]: 22.8 µM (inactive) | GI50 [20]: 4.28 µM (inactive) | GI50 [21]: 23.1 µM (inactive) | GI50 [22]: 58.9 µM (inactive) | GI50 [23]: 40.6 µM (inactive) | GI50 [24]: 32.9 µM (inactive) | GI50 [25]: 32.3 µM (inactive) | GI50 [26]: 70.6 µM (inactive) | GI50 [27]: 18.9 µM (inactive) | GI50 [28]: 31 µM (inactive) | GI50 [29]: > 69 µM (inactive) | GI50 [30]: 7.87 µM (inactive) | GI50 [31]: 13.5 µM (inactive) | GI50 [32]: 28.3 µM (inactive) | GI50 [33]: 35.2 µM (inactive) | GI50 [34]: 72.8 µM (inactive) | GI50 [56]: 50 µM (inactive) | GI50 [35]: 30 µM (inactive) | GI50 [36]: 54.2 µM (inactive) | GI50 [37]: > 100 µM (inactive) | GI50 [38]: 30.2 µM (inactive) | GI50 [39]: 65.3 µM (inactive) | GI50 [40]: 29 µM (inactive) | GI50 [41]: 17.1 µM (inactive) | GI50 [42]: 43.5 µM (inactive) | GI50 [43]: 38.2 µM (inactive) | GI50 [44]: 36.9 µM (inactive) | GI50 [45]: 27.2 µM (inactive) | GI50 [46]: 28.6 µM (inactive) | GI50 [47]: 33.9 µM (inactive) | GI50 [48]: 18.6 µM (inactive) | GI50 [49]: 18.9 µM (inactive) | GI50 [50]: 39.6 µM | GI50 [51]: 52.7 µM (inactive) | GI50 [58]: 26 µM (inactive) | GI50 [52]: 41.8 µM (inactive) | GI50 [53]: > 68.7 µM (inactive)
